Key:
Experiment in all cases: relative viability (nuclei count vs DMSO), 5 days (fraction); higher = more cells survive
SK-MES-1 = test system: SK-MES-1
How it was run: (§1)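 Five library-drug doses in √10 steps were combined with a fixed anchor-drug dose, or a single drug was given alone, by pin tool to lung cancer cell lines in 1536-well plates the day after seeding. Nuclei were stained and counted after 5 days. Relative viability is the nuclei count in treated wells over that in vehicle wells, taken as the median of duplicate plates.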

COR-L 105 = test system: COR-L 105
How it was run: as §1

HCC-78 = test system: HCC-78
How it was run: as §1

PC-14 = test system: PC-14
How it was run: as §1

201T = test system: 201T
How it was run: as §1

HCC-366 = test system: HCC-366
How it was run: as §1

NCI-H1993 = test system: NCI-H1993
How it was run: as §1

NCI-H1563 = test system: NCI-H1563
How it was run: as §1

BEN = test system: BEN
How it was run: as §1

LK-2 = test system: LK-2
How it was run: as §1

NCI-H1915 = test system: NCI-H1915
How it was run: as §1

NCI-H1734 = test system: NCI-H1734
How it was run: as §1

NCI-H2405 = test system: NCI-H2405
How it was run: as §1

EKVX = test system: EKVX
How it was run: as §1

NCI-H661 = test system: NCI-H661
How it was run: as §1

NCI-H460 = test system: NCI-H460
How it was run: as §1

COR-L23 = test system: COR-L23
How it was run: as §1

HCC-15 = test system: HCC-15
How it was run: as §1

A-427 = test system: A-427
How it was run: as §1

EMC-BAC-2 = test system: EMC-BAC-2
How it was run: as §1

NCI-H647 = test system: NCI-H647
How it was run: as §1

HOP-62 = test system: HOP-62
How it was run: as §1

With `CN1CCN(CCOc2cc(OC3CCOCC3)c3c(Nc4c(Cl)ccc5c4OCO5)ncnc3c2)CC1` [Saracatinib] + CS(=O)(=O)CCNCc1ccc(-c2ccc3ncnc(Nc4ccc(OCc5cccc(F)c5)c(Cl)c4)c3c2)o1 [Lapatinib] (partner 2 µM) the relative viability (SK-MES-1; first compound 0.02 µM) was 0.442, the relative viability (SK-MES-1; first compound 0.2 µM) was 0.425 and the relative viability (SK-MES-1; first compound 0.6325 µM) was 0.47. For the same compound, the relative viability (SK-MES-1; first compound 2 µM) was 0.41, the relative viability (COR-L 105; first compound 0.02 µM) was 0.389 and the relative viability (COR-L 105; first compound 0.2 µM) was 0.281. For the same compound, the relative viability (COR-L 105; first compound 0.6325 µM) was 0.311, the relative viability (COR-L 105; first compound 2 µM) was 0.279 and the relative viability (HCC-78; first compound 0.02 µM) was 0.822. It also gave a relative viability (HCC-78; first compound 0.2 µM) of 0.481, a relative viability (HCC-78; first compound 0.6325 µM) of 0.686 and a relative viability (HCC-78; first compound 2 µM) of 0.778. It also gave a relative viability (PC-14; first compound 0.02 µM) of 0.334, a relative viability (PC-14; first compound 0.2 µM) of 0.26 and a relative viability (PC-14; first compound 0.6325 µM) of 0.305. It also gave a relative viability (PC-14; first compound 2 µM) of 0.185, a relative viability (201T; first compound 0.02 µM) of 1 and a relative viability (201T; first compound 0.2 µM) of 0.856. It also gave a relative viability (201T; first compound 0.6325 µM) of 0.998, a relative viability (201T; first compound 2 µM) of 0.859 and a relative viability (HCC-366; first compound 0.02 µM) of 1.02. The relative viability (HCC-366; first compound 0.6325 µM) was 1.04, the relative viability (HCC-366; first compound 2 µM) was 0.707 and the relative viability (NCI-H1993; first compound 0.02 µM) was 0.864. It also gave a relative viability (NCI-H1993; first compound 0.2 µM) of 0.737, a relative viability (NCI-H1993; first compound 2 µM) of 0.691 and a relative viability (NCI-H1563; first compound 0.02 µM) of 0.941. It also gave a relative viability (NCI-H1563; first compound 0.2 µM) of 0.778, a relative viability (NCI-H1563; first compound 0.6325 µM) of 0.831 and a relative viability (NCI-H1563; first compound 2 µM) of 0.775. It also gave a relative viability (BEN; first compound 0.02 µM) of 0.745, a relative viability (BEN; first compound 0.2 µM) of 0.541 and a relative viability (BEN; first compound 0.6325 µM) of 0.911. The relative viability (BEN; first compound 2 µM) was 0.489, the relative viability (LK-2; first compound 0.02 µM) was 0.95 and the relative viability (LK-2; first compound 0.2 µM) was 0.715. The relative viability (LK-2; first compound 0.6325 µM) was 0.725, the relative viability (LK-2; first compound 2 µM) was 0.504 and the relative viability (NCI-H1915; first compound 0.02 µM) was 0.987. The relative viability (NCI-H1915; first compound 0.2 µM) was 0.917, the relative viability (NCI-H1915; first compound 0.6325 µM) was 0.955 and the relative viability (NCI-H1915; first compound 2 µM) was 0.819. For the same compound, the relative viability (NCI-H1734; first compound 0.02 µM) was 1.11, the relative viability (NCI-H1734; first compound 0.6325 µM) was 0.999 and the relative viability (NCI-H1734; first compound 2 µM) was 0.777. It also gave a relative viability (NCI-H2405; first compound 0.02 µM) of 1.03, a relative viability (NCI-H2405; first compound 0.2 µM) of 0.966 and a relative viability (NCI-H2405; first compound 0.6325 µM) of 0.984. For the same compound, the relative viability (NCI-H2405; first compound 2 µM) was 0.511, the relative viability (EKVX; first compound 0.02 µM) was 0.222 and the relative viability (EKVX; first compound 0.2 µM) was 0.165. The relative viability (EKVX; first compound 0.6325 µM) was 0.238, the relative viability (EKVX; first compound 2 µM) was 0.131 and the relative viability (NCI-H661; first compound 0.02 µM) was 0.456. The relative viability (NCI-H661; first compound 0.2 µM) was 0.552, the relative viability (NCI-H661; first compound 0.6325 µM) was 0.633 and the relative viability (NCI-H661; first compound 2 µM) was 0.37. It also gave a relative viability (NCI-H460; first compound 0.02 µM) of 0.886, a relative viability (NCI-H460; first compound 0.2 µM) of 0.682 and a relative viability (NCI-H460; first compound 0.6325 µM) of 0.799. The relative viability (NCI-H460; first compound 2 µM) was 1.05, the relative viability (COR-L23; first compound 0.02 µM) was 0.947 and the relative viability (COR-L23; first compound 0.2 µM) was 0.571. The relative viability (COR-L23; first compound 0.6325 µM) was 1.1, the relative viability (COR-L23; first compound 2 µM) was 0.897 and the relative viability (HCC-15; first compound 0.02 µM) was 0.859. The relative viability (HCC-15; first compound 0.2 µM) was 0.828, the relative viability (HCC-15; first compound 0.6325 µM) was 0.961 and the relative viability (HCC-15; first compound 2 µM) was 0.854. It also gave a relative viability (A-427; first compound 0.02 µM) of 0.921, a relative viability (A-427; first compound 0.2 µM) of 0.877 and a relative viability (A-427; first compound 0.6325 µM) of 1.07. The relative viability (A-427; first compound 2 µM) was 1.04, the relative viability (EMC-BAC-2; first compound 0.02 µM) was 0.91 and the relative viability (EMC-BAC-2; first compound 0.2 µM) was 0.792. It also gave a relative viability (EMC-BAC-2; first compound 0.6325 µM) of 0.945, a relative viability (EMC-BAC-2; first compound 2 µM) of 0.761 and a relative viability (NCI-H647; first compound 0.02 µM) of 0.76. The relative viability (NCI-H647; first compound 0.2 µM) was 0.803, the relative viability (NCI-H647; first compound 0.6325 µM) was 0.894 and the relative viability (NCI-H647; first compound 2 µM) was 0.48. The relative viability (HOP-62; first compound 0.02 µM) was 1.21, the relative viability (HOP-62; first compound 0.2 µM) was 0.816 and the relative viability (HOP-62; first compound 0.6325 µM) was 1.05. For the same compound, the relative viability (HOP-62; first compound 2 µM) was 1.21.
